Key:
[1] = target: T1, Serine/threonine-protein kinase TBK1 (Homo sapiens, UniProt Q9UHD2)
T1 sequence (Q9UHD2 whole entry): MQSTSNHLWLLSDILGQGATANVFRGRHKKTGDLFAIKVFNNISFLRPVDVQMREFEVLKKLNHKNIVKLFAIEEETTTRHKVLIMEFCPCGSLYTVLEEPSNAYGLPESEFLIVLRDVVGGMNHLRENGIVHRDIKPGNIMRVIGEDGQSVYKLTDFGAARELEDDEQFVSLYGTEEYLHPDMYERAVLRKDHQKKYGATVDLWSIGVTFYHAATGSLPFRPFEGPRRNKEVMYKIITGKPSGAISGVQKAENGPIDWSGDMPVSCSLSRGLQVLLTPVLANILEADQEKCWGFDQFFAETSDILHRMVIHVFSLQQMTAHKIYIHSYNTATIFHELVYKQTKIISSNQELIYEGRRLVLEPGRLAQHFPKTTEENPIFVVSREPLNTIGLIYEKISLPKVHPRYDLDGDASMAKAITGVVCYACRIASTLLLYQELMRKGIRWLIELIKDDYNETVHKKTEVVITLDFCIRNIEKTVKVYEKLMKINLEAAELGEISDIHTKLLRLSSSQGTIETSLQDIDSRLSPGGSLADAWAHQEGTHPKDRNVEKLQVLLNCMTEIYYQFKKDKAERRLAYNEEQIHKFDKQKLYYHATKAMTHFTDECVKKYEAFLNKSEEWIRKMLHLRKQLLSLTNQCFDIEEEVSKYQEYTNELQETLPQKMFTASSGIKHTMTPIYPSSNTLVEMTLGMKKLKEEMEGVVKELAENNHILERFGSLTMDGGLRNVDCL
Description: Binding affinity to human TBK1 by KINOMEscan assay

Cytochrome P450 3A4 = Cytochrome P450 3A4 (Homo sapiens, UniProt P08684); experiment: Inhibition of CYP3A4 in human liver microsomes assessed as midazolam 1-hydroxylation reaction measured after 30 mins by LC/MS/MS analysis; assay type: ADME, Microsome
[2] = target: T2, Serine/threonine-protein kinase ULK2 (Homo sapiens, UniProt Q8IYT8)
T2 sequence (Q8IYT8 whole entry): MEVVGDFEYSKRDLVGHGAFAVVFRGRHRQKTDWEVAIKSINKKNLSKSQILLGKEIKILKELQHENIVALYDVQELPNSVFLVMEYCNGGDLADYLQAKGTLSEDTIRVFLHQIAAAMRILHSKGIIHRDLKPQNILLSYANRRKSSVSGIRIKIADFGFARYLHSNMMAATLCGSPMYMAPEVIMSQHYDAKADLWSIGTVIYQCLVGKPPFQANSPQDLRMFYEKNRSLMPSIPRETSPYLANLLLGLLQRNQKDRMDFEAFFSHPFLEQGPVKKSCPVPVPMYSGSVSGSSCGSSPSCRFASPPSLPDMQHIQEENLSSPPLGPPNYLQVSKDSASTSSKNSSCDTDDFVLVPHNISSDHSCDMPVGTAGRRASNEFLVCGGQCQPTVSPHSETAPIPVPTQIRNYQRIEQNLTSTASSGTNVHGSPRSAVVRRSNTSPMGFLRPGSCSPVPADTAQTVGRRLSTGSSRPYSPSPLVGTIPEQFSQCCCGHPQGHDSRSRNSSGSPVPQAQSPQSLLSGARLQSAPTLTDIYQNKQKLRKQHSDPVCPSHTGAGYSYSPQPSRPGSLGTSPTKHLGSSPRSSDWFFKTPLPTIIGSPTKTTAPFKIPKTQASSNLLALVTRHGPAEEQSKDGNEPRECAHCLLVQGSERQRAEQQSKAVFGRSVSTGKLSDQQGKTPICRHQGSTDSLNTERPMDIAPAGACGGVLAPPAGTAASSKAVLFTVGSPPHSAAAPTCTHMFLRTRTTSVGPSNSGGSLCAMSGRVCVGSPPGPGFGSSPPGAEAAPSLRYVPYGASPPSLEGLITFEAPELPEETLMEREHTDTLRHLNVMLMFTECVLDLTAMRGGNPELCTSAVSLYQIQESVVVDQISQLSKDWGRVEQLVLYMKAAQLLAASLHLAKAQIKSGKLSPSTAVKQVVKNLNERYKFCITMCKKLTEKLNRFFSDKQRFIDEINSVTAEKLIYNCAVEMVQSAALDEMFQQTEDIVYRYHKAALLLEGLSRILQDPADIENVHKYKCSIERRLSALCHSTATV
Description: Binding affinity to human ULK2 by KINOMEscan assay

Cytochrome P450 3A4, sequence (P08684 whole entry): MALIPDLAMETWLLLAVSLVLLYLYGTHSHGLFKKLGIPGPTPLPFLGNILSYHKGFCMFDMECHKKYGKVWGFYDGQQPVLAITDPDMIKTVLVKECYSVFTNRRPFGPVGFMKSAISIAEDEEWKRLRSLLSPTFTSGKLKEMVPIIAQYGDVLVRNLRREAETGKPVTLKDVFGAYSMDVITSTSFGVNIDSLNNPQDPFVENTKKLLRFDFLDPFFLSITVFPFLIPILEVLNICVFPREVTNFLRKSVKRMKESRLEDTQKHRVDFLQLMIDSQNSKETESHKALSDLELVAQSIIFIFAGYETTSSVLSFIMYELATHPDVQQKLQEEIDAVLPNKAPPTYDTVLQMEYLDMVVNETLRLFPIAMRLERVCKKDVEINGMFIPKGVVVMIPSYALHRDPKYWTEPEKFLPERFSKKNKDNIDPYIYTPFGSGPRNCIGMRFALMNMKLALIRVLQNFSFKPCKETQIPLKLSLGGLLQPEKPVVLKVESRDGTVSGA

An IC50 [1] of 230 nM, an IC50 (Cytochrome P450 3A4) greater than 50000 nM and an IC50 [2] of 2080 nM were found for `COc1nc(-c2cc(-c3cnn(C)c3)cnc2N)cc2c1C(=O)N(CC(F)(F)F)CC2` in this work.
